Reference: patent publication US20240158446A1, “CYCLIC COMPOUND HAVING SELECTIVE INHIBITORY ACTION ON KRAS OVER HRAS AND NRAS” (CHUGAI SEIYAKU KABUSHIKI KAISHA, priority 2021, published 2024)
Where two headings read alike, the source gives them in different places. Where a SMILES comes first, the peptide text is derived from it. Bridges are numbered along the chain shown (N, C = ends). [ ]: non-standard residue; d: D form. The star is where a group is joined. hPhe(3-Cl-4-CF3) = N[C@@H](CCc1ccc(C(F)(F)F)c(Cl)c1)C(=O)O; NPrPhe(4-Me) = CCCN[C@@H](Cc1ccc(C)cc1)C(=O)O; NMeGly(cPent) = CN[C@H](C(=O)O)C1CCCC1; NMeD = CN[C@@H](CC(=O)O)C(=O)O; NMeL = CN[C@@H](CC(C)C)C(=O)O; Morpholide = C1CN(*)CCO1; Ac5c = NC1(C(=O)O)CCCC1; Aze = O=C(O)[C@@H]1CCN1; Sar = CNCC(=O)O

Experiments:
[1] = tested on: human lung cancer strain NCI-H441;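 also: cell proliferation inhibition after four days measured by CellTiter-Glo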
[2] = target: GDP-bound KRAS wild-type protein (Homo sapiens, UniProt P01116); test: Binding to KRAS by surface plasmon resonance (SPR), Single Cycle Kinetics
[3] = target: GDP-bound NRAS wild-type protein (Homo sapiens, UniProt P01111); test: Binding to NRAS by surface plasmon resonance (SPR), Single Cycle Kinetics; details: for NRAS/KRAS (ratio of KD value for NRAS to KD value for KRAS): GDP-bound NRAS wild-type protein vs GDP-bound KRAS wild-type protein
[4] = target: GDP-bound HRAS wild-type protein (Homo sapiens, UniProt P01112); test: Binding to HRAS by surface plasmon resonance (SPR), Single Cycle Kinetics; details: for HRAS/KRAS (ratio of KD value for HRAS to KD value for KRAS) / ratio of the KD value with respect to GDP-bound HRAS wild-type protein to the KD value with respect to KRAS: SPR; for HRAS/KRAS (ratio of KD value for HRAS to KD value for KRAS): GDP-bound HRAS wild-type protein vs GDP-bound KRAS wild-type protein; for HRAS/KRAS (ratio of KD value with respect to GDP-bound HRAS wild-type protein to KD value with respect to KRAS): SPR KD ratio HRAS/KRAS, class symbols
[5] = SPR, Single Cycle Kinetics, 1:1 binding model, GDP-bound KRAS wild-type protein, read-out: KRAS KD
[6] = read-out: NCI-H441 cell proliferation inhibitory activity, 50% proliferation inhibitory concentration (IC50 value), NCI-H441, four days, CellTiter-Glo
[7] = SPR, Single Cycle Kinetics, 1:1 binding model, read-out: KD value with respect to GDP-bound KRAS wild-type protein
[8] = SPR, Single Cycle Kinetics, GDP-bound KRAS wild-type protein, read-out: KRAS KD
[9] = SPR Single Cycle Kinetics, GDP-bound KRAS wild-type protein, 1:1 binding model, read-out: KRAS KD

GDP-bound NRAS wild-type protein, sequence (P01111 whole entry): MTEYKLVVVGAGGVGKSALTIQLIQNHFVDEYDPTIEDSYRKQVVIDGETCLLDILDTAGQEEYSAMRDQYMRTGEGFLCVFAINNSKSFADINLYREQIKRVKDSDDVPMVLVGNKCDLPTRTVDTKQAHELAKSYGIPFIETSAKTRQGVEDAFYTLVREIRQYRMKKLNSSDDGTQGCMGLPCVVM
GDP-bound KRAS wild-type protein, sequence (P01116 whole entry): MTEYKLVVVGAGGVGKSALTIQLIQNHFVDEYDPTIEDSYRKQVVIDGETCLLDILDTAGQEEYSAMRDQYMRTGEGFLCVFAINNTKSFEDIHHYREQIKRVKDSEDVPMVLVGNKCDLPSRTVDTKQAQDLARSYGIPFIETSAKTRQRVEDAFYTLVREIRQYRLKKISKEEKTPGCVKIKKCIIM
GDP-bound HRAS wild-type protein, sequence (P01112 whole entry): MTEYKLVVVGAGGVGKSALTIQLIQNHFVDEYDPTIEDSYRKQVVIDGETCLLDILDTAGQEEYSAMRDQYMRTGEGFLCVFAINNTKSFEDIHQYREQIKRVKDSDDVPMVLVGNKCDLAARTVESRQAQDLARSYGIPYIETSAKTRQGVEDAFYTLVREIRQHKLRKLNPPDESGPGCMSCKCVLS

## CCO[C@@H]1C[C@H]2C(=O)NC3(CCC3)C(=O)N(C)[C@@H](C3CCCC3)C(=O)N(C)[C@H](C(=O)N3CCC3)CC(=O)N(C)[C@@H](CC)C(=O)N[C@@H]([C@@H](C)CC)C(=O)N(C)CC(=O)N(C)[C@H]3C/C=C\CCN(C3=O)[C@@H](CC3CCCCC3)C(=O)N(C)CC(=O)N[C@@H](CCc3cc(F)c(C(F)(F)F)c(F)c3)C(=O)N2C1 [PP1445]
[1]
  IC50: 92.8 nM
[2]; [5]
  Kd: 0.27 nM
[3]; SPR, KD ratio class
  NRAS/KRAS (ratio of KD value for NRAS to KD value for KRAS): A (a compound having 10 or more and less than 20 is denoted as A)
[4]; KD ratio class
  HRAS/KRAS (ratio of KD value for HRAS to KD value for KRAS): A (a compound having 10 or more and less than 20 is denoted as A)

## CCO[C@@H]1C[C@H]2C(=O)NC3(CCC3)C(=O)N(C)[C@@H](C3CCCC3)C(=O)N(C)[C@H](C(=O)N(C)C)CC(=O)N(C)[C@@H](CC(C)C)C(=O)N[C@@H]([C@@H](C)CC)C(=O)N(C)CC(=O)N(C)[C@H]3C/C=C\CCN(C3=O)[C@@H](Cc3ccc(F)cc3C)C(=O)N(C)CC(=O)N[C@@H](CCc3ccc(Cl)c(Cl)c3)C(=O)N2C1 [PP1480]
[1]
  IC50: 85.8 nM
[2]; [5]
  Kd: 0.92 nM
[3]; SPR, KD ratio class
  NRAS/KRAS (ratio of KD value for NRAS to KD value for KRAS): A (a compound having 10 or more and less than 20 is denoted as A)
[4]; KD ratio class
  HRAS/KRAS (ratio of KD value for HRAS to KD value for KRAS): B (a compound having 3 or more and less than 10 is denoted as B)

## CCC[C@H]1C(=O)N[C@@H]([C@@H](C)CC)C(=O)N(C)CC(=O)N(C)[C@H]2C/C=C\CCN(C2=O)[C@@H](Cc2ccc(C)cc2)C(=O)N(C)CC(=O)N[C@@H](CCc2ccc(C(F)(F)F)c(OC)c2)C(=O)N2C[C@H](OCC)C[C@H]2C(=O)N(C)C2(CCC2)C(=O)N(C)[C@@H](C2CCCC2)C(=O)N(C)[C@H](C(=O)N2CCCC2)CC(=O)N1C [PP3106, (2S,8S,12R,14S,20S,23S,27S,30S,36S,38Z)-20-cyclopentyl-12-ethoxy-8-[2-[3-methoxy-4-(trifluoromethyl)phenyl]ethyl]-4,16,19,22,26,32,35-heptamethyl-30-[(1S)-1-methylpropyl]-27-propyl-2-(p-tolylmethyl)-23-(pyrrolidine-1-carbonyl)spiro[1,4,7,10,16,19,22,26,29,32,35-undecazatricyclo[34.5.1.0^10,14]dotetracont-38-ene-17,1′-cyclobutane]-3,6,9,15,18,21,25,28,31,34,42-undecone]
[1]; [6]
  IC50: 2.9 nM
[2]; [7]
  Kd: 0.048 nM
[2]; [8]
  Kd: 0.048 nM
[3]; SPR
  NRAS/KRAS (ratio of KD value for NRAS to KD value for KRAS): A (a compound having 10 or more and less than 20 is denoted as A)
[3]; SPR, KD(NRAS)/KD(KRAS)
  ratio of the KD value with respect to GDP-bound NRAS wild-type protein to the KD value with respect to KRAS: A (a compound having 10 or more and less than 20 is denoted as A)
[4]
  HRAS/KRAS (ratio of KD value for HRAS to KD value for KRAS): A (a compound having 10 or more and less than 20 is denoted as A)
  ratio of the KD value with respect to GDP-bound HRAS wild-type protein to the KD value with respect to KRAS: A (a compound having 10 or more and less than 20 is denoted as A)

## CCO[C@@H]1C[C@H]2C(=O)NC3(CC(C)(C)C3)C(=O)N(C)[C@@H](C3CCCCC3)C(=O)N(C)[C@H](C(=O)N(C)C)CC(=O)N(C)[C@@H](COC)C(=O)N[C@@H]([C@@H](C)CC)C(=O)N(C3CC3)CC(=O)N(C)[C@H]3C/C=C\CCN(C3=O)[C@@H](Cc3ccc(C(F)(F)F)cc3)C(=O)N(C)CC(=O)N[C@@H](CCc3cc(F)c(C(F)(F)F)c(F)c3)C(=O)N2C1 [PP2657]
[1]
  IC50: 29.2 nM
[2]; [9]
  Kd: 0.44 nM
[3]; SPR KD ratio NRAS/KRAS, class symbols
  NRAS/KRAS (ratio of KD value with respect to GDP-bound NRAS wild-type protein to KD value with respect to KRAS): A (a compound having 10 or more and less than 20 is denoted as A)
[4]
  HRAS/KRAS (ratio of KD value with respect to GDP-bound HRAS wild-type protein to KD value with respect to KRAS): A (a compound having 10 or more and less than 20 is denoted as A)

## C#CC[C@H]1C(=O)N[C@@H]([C@@H](C)CC)C(=O)N(C)CC(=O)N(C)[C@H]2CC[C@@H](C)CN(C2=O)[C@@H](Cc2ccc(C(F)(F)F)cc2)C(=O)N(C)CC(=O)N[C@@H](CCc2ccc(C(F)(F)F)c(Cl)c2)C(=O)N2CCC[C@H]2C(=O)NC2(CCCC2)C(=O)N(C)[C@@H](C2CCCC2)C(=O)N(C)[C@H](C(=O)N(C)C)CC(=O)N1C [PP1340]
[1]
  IC50: 10.9 nM
[2]; [5]
  Kd: 0.081 nM
[3]; SPR, KD ratio class
  NRAS/KRAS (ratio of KD value for NRAS to KD value for KRAS): B (a compound having 3 or more and less than 10 is denoted as B)
[4]; KD ratio class
  HRAS/KRAS (ratio of KD value for HRAS to KD value for KRAS): B (a compound having 3 or more and less than 10 is denoted as B)

## CCCN1C(=O)[C@@H]2CCN2C(=O)[C@H](C)NC(=O)[C@H]([C@@H](C)CC)NC(=O)[C@H](CC(C)C)N(C)C(=O)C[C@@H](C(=O)N2CCOCC2)N(C)C(=O)[C@H](C2CCCC2)N(C)C(=O)C2(CCCC2)NC(=O)[C@@H]2CCCN2C(=O)[C@H](CCc2ccc(C(F)(F)F)c(Cl)c2)NC(=O)CN(C)C(=O)[C@@H]1Cc1ccc(C)cc1 [PP0071] ([NMeL]IA[Aze][NPrPhe(4-Me)][Sar][hPhe(3-Cl-4-CF3)]P[Ac5c][NMeGly(cPent)][NMeD]-Morpholide; lactam N-11)
[1]
  IC50: 3.8 nM
[2]; [9]
  Kd: 0.15 nM

## CCC[C@H]1C(=O)N[C@@H](CC(C)C)C(=O)N(C2CC2)CC(=O)N(C)[C@H]2C/C=C\CCN(C2=O)[C@@H](Cc2ccc(C)cc2)C(=O)N(C)CC(=O)N[C@@H](CCc2ccc(C(F)(F)F)c(Cl)c2)C(=O)N2C[C@H](OCC)C[C@H]2C(=O)NC2(CCC2)C(=O)N(C)[C@@H](C2CCCC2)C(=O)N(C)[C@H](C(=O)N(C)C)CC(=O)N1C [PP2543]
[1]
  IC50: 179 nM
[2]; [9]
  Kd: 4.2 nM
[4]
  HRAS/KRAS (ratio of KD value with respect to GDP-bound HRAS wild-type protein to KD value with respect to KRAS): B (a compound having 3 or more and less than 10 is denoted as B)

## CCC(CC)[C@H]1C(=O)N(C)[C@H](C(=O)N(C)C)CC(=O)N(C)[C@@H](COC)C(=O)N[C@@H]([C@@H](C)CC)C(=O)N(C2CC2)CC(=O)N(C)[C@H]2C/C=C\CCN(C2=O)[C@@H](CC2CCCCC2)C(=O)N(C)CC(=O)N[C@@H](CCc2ccc(Cl)c(Cl)c2)C(=O)N2C[C@H](OC(C)C)C[C@H]2C(=O)NC2(CC(C)(C)C2)C(=O)N1C [PP2517]
[1]
  IC50: 562 nM
[2]; [8]
  Kd: 9.3 nM
[4]
  HRAS/KRAS (ratio of KD value for HRAS to KD value for KRAS): A (a compound having 10 or more and less than 20 is denoted as A)

## CCCCCC[C@H]1C(=O)N[C@@H]([C@@H](C)CC)C(=O)N(C)CC(=O)N(C)[C@H]2C/C=C\CCN(C2=O)[C@@H](Cc2ccc(C(F)(F)F)cc2)C(=O)N(C)CC(=O)N[C@@H](CCc2cc(F)c(C(F)(F)F)c(F)c2)C(=O)N2C[C@H](OCC)C[C@H]2C(=O)NC2(CCC2)C(=O)N(C)[C@@H](C(CC)CC)C(=O)N(C)[C@H](C(=O)N(C)C)CC(=O)N1C [PP1202]
[1]
  IC50: 24.1 nM
[2]; [8]
  Kd: 0.4 nM

## CC[C@H](C)[C@@H]1NC(=O)[C@H](CC(C)C)N(C)C(=O)CSC[C@H](C(=O)N(C)C)N(C)C(=O)[C@H](C2CCCC2)N(C)C(=O)C2(CCCC2)NC(=O)[C@@H]2CCCN2C(=O)[C@H](CCc2cc(F)c(C(F)(F)F)c(F)c2)NC(=O)CN(C)C(=O)[C@H](Cc2ccc(C(F)(F)F)cc2)N2CC/C=C\C[C@@H](C2=O)N(C)C(=O)CN(C)C1=O [PP3109]
[1]; [6]
  IC50: 3420 nM
[2]; [7]
  Kd: 3000 nM
[2]; [8]
  Kd: 3000 nM

## CC[C@H](C)[C@@H]1NC(=O)[C@H](COC)N(C)C(=O)C[C@@H](C(=O)N2CCCCC2)N(C)C(=O)[C@H](C2CCCC2)N(C)C(=O)C2(CC(C)(C)C2)NC(=O)[C@@H]2C[C@@H](OC(C)C)CN2C(=O)[C@H](CCc2cc(F)c(C(F)(F)F)c(F)c2)NC(=O)CN(C)C(=O)[C@H](Cc2ccc(C(F)(F)F)cc2)N2CC/C=C\C[C@@H](C2=O)N(C)C(=O)CN(C)C1=O [PP2663]
[1]
  IC50: 11.2 nM
[2]; [9]
  Kd: 0.24 nM
[4]
  HRAS/KRAS (ratio of KD value with respect to GDP-bound HRAS wild-type protein to KD value with respect to KRAS): A (a compound having 10 or more and less than 20 is denoted as A)

## CCC[C@H]1C(=O)N[C@@H]([C@@H](C)CC)C(=O)N(C)CC(=O)N(C)[C@H]2C/C=C\CCN(C2=O)[C@@H](Cc2ccc(C(F)(F)F)cc2)C(=O)N(C)CC(=O)N[C@@H](CCc2ccc(C(F)(F)F)c(OC)c2)C(=O)N2C[C@H](OCC)C[C@H]2C(=O)N(C)C2(CCC2)C(=O)N(C)[C@@H](C2CCCC2)C(=O)N(C)[C@H](C(=O)N2CCCCC2)CC(=O)N1C [PP3103, (2S,8S,12R,14S,20S,23S,27S,30S,36S,38Z)-20-cyclopentyl-12-ethoxy-8-[2-[3-methoxy-4-(trifluoromethyl)phenyl]ethyl]-4,16,19,22,26,32,35-heptamethyl-30-[(1S)-1-methylpropyl]-23-(piperidine-1-carbonyl)-27-propyl-2-[[4-(trifluoromethyl)phenyl]methyl]spiro[1,4,7,10,16,19,22,26,29,32,35-undecazatricyclo[34.5.1.0^10,14]dotetracont-38-ene-17,1′-cyclobutane]-3,6,9,15,18,21,25,28,31,34,42-undecone]
[1]; [6]
  IC50: 21.5 nM
[2]; [7]
  Kd: 0.21 nM
[2]; [8]
  Kd: 0.21 nM
[4]
  HRAS/KRAS (ratio of KD value for HRAS to KD value for KRAS): A (a compound having 10 or more and less than 20 is denoted as A)
  ratio of the KD value with respect to GDP-bound HRAS wild-type protein to the KD value with respect to KRAS: A (a compound having 10 or more and less than 20 is denoted as A)
